One block for each compound: values may come before it. Bridge positions count the residues as written; N and C are the ends. Square brackets hold non-standard residues; d marks the D form. Peptide text beside a SMILES is read from it. Trp(1-Me) = Cn1cc(C[C@H](N)C(=O)O)c2ccccc21; 1Nal = N[C@@H](Cc1cccc2ccccc12)C(=O)O; 2Nal = N[C@@H](Cc1ccc2ccccc2c1)C(=O)O; Cit = NC(=O)NCCC[C@H](N)C(=O)O; αMeL = CC(C)C[C@](C)(N)C(=O)O; Aib = CC(C)(N)C(=O)O
Legend:
human IL-23R = target: T1, human IL-23R (Homo sapiens, UniProt Q5VWK5); experiment: Human ELISA IL-23/IL-23R binding inhibition; details: human IL-23 coated, recombinant human IL-23R-Fc chimera
T1 sequence (Q5VWK5 24-355 limits assumed): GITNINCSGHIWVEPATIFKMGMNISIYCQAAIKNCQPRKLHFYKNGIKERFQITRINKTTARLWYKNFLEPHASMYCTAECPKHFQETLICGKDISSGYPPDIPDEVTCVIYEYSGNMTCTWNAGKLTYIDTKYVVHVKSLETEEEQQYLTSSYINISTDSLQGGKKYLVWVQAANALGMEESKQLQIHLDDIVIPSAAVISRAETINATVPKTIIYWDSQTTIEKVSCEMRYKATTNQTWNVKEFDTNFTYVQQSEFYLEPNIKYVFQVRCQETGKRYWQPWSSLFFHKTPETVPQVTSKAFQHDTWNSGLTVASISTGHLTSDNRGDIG
Procedure: Antagonism of peptide compounds for human interleukin-23 receptor inhibitors, was determined by an ELISA assay.
A 384-well plate was coated with 50 μl/well of human IL-23 at a final concentration of 1 μg/ml and incubated overnight at 4° C. The wells were washed 3 times with 80 μl wash buffer and blocked with 80 μl blocking buffer for 60 minutes at room temperature and washed again. 20 μl of serially diluted test peptides was added to each well and subsequently 20 μl of recombinant human IL-23R-Fc chimera at final concentration of 0.1 μg/ml. The plate was incubated for 60 minutes at room temperature. After the wells were washed, bound IL-23R-Fc was detected with goat anti-hu-lgG1-HRP antibody. Signals were visualized with QuantaBlu Fluorogenic Peroxidase Substrate.

[1] = tested on: IL-23 induced STAT3 signaling; experiment: Inhibition of IL-23 induced STAT3 signaling in HEK-Blue IL-23 cells (SEAP reporter); assay type: cell-based; details: human IL-23 0.25 ng/ml, read-out: Inhibition of IL-23 induced pSTAT3 (IC50 nM)
From the text: HEK-Blue™ IL-23 cells (Invivogen) are designed for the detection of bioactive human (hIL-23) and murine IL-23 (mIL-23) by monitoring the activation of the STAT3 pathway. Binding of IL-23 to its receptor on the surface of HEK-Blue™ IL-23 cells triggers a signaling cascade leading to the activation of STAT3 and the subsequent production of secreted embryonic alkaline phosphatase (SEAP). This can be readily assessed using QUANTI-Blue™ Solution, a SEAP detection reagent.
HEK-Blue™ IL-23 cells were cultured as described by Invivogen.
On the first day of assay 10 μL of the HEK-Blue IL-23 cell suspension (final concentration: 10,000 cells/well) and 10 μl of serially diluted compound solutions were dispensed into a 384-well assay plate. After pre-incubation of the reaction mixtures at 37° C./5% CO2/95% humidity for 60 minutes, 10 μl of the humanIL-23 cytokine (final concentration: 0.25 ng/ml) was added to each well for the STAT3 signaling activation. The plate was incubated overnight at 37° C./5% CO2/95% humidity.
On the second day 20 μl per well of Quanti-Blue detection solution (prepared according to the manufacture instruction) was dispensed into a new 384-well plate and followed by the transfer of 5 μl supernatant of the overnight incubated cell/sample mixtures. After incubation of 45 min at room temperature signals were measured with PHERAstar (BMG) at OD 620-655 nm.
Dose response data were fitted with XLfit.

[2] = Chemical stability (relative purity loss) of peptide compounds in buffer formulations; assay type: physicochemical
Procedure: Purity of a compound batch was determined through UHPLC/MS prior to chemical stability measurement using Method A.
For stability assessment, the target concentration was 300 μM pure compound. Therefore, solutions from solid samples were prepared in the following buffer systems with a concentration of ~300 µM compound based on the previously determined % purity. The solid samples were obtained by drying down aliquots of a freshly prepared acetonitrile stock solution using a THERMO SPEEDVAC vacuum centrifuge. The dry down time was 3 hours.
The following buffer systems were applied: • Solubility buffer system A) 100 mM phosphate buffer pH 7.4. • Solubility buffer system B) 100 mM phosphate buffer pH 6.5. • Solubility buffer system C) 100 mM HCl pH 1.2.
Prepared solutions were filtered through […] pore size and filled into sterilized glass containers under laminar flow conditions.
[…] After this time course, the samples were centrifuged for 15 min at 2500 RCF. Then 1.5 μl of the undiluted supernatant were analysed with UHPLC-UV.
The chemical stability was rated through the relative loss of purity calculated by the equation:
[(purity after 0 hours at 37° C.)(purity after 24 hours at 37° C.)]/(purity after 0 hours at 37° C.)]*100%.
The purity is calculated as [(peak area peptide)/(total peak area)]*100%.
Buffer composition: 100 mM HCl pH 1.2, 100 mM phosphate buffer pH 6.5, 100 mM phosphate buffer pH 7.4

[3] = pH 6.5 (100 mM phosphate buffer)
[4] = pH 7.4 (100 mM phosphate buffer)

- IC50 (human IL-23R): 8.27 nM
- IC50 [1]: 128 nM
Compound: COc1ccc(C[C@@H]2NC(=O)[C@H](C(C)C)NC(=O)[C@H](CCC(N)=O)NC(=O)[C@H](Cc3c[nH]c4ccccc34)NC(=O)[C@H]([C@@H](C)O)NC(=O)[C@H](CC(N)=O)NC(=O)[C@H](NC(C)=O)CCCCNC(=O)C[C@@H](C(=O)N[C@@H](CC(N)=O)C(=O)N[C@@H](CC(N)=O)C(N)=O)NC(=O)C(C)(C)NC(=O)[C@H](Cc3ccc4ccccc4c3)NC2=O)cc1 [compound 31] (Ac-[dK]NTWQVY(Me)[2Nal][Aib]DNN-NH2; lactam 1-10)

- IC50 (human IL-23R): 0.63 nM
- IC50 [1]: 334 nM
Compound: COc1ccc(C[C@@H]2NC(=O)[C@H](CC(C)C)NC(=O)[C@H](CCC(N)=O)NC(=O)[C@H](Cc3c[nH]c4ccccc34)NC(=O)[C@H]([C@@H](C)O)NC(=O)[C@H](CC(N)=O)NC(=O)[C@H](NC(C)=O)CCCCNC(=O)C[C@@H](C(=O)N[C@@H](CC(N)=O)C(=O)N[C@@H](CC(N)=O)C(N)=O)NC(=O)C(C)(C)NC(=O)[C@H](Cc3ccc4ccccc4c3)NC2=O)cc1 [compound 1] (Ac-[dK]NTWQLY(Me)[2Nal][Aib]DNN-NH2; lactam 1-10)

- Conc. [mg/ml] 0 h ([2]; pH 1.2 (100 mM HCl)): 1.5 mg/mL
- Conc. [mg/ml] 24 h 37° C. ([2]; pH 1.2 (100 mM HCl)): 1.1 mg/mL
- Mass Balance [%] 24 h 37° C. ([2]; pH 1.2 (100 mM HCl)): −1.9%
- Relative Purity Loss [%] 24 h 37° C. ([2]; pH 1.2 (100 mM HCl)): 22.3%
- Conc. [mg/ml] 0 h [2, 3]: 1.2 mg/mL
- Conc. [mg/ml] 24 h 37° C. [2, 3]: 1.2 mg/mL
- Mass Balance [%] 24 h 37° C. [2, 3]: −1.8%
- Relative Purity Loss [%] 24 h 37° C. [2, 3]: 1.2%
- Conc. [mg/ml] 0 h [2, 4]: 1.5 mg/mL
- Conc. [mg/ml] 24 h 37° C. [2, 4]: 1.4 mg/mL
- Mass Balance [%] 24 h 37° C. [2, 4]: −3.2%
- Relative Purity Loss [%] 24 h 37° C. [2, 4]: 2.6%
- IC50 [1]: 1610 nM
Compound: COc1ccc(C[C@@H]2NC(=O)[C@H](CCCNC(=N)N)NC(=O)[C@H](CCC(N)=O)NC(=O)[C@H](Cc3c[nH]c4ccccc34)NC(=O)[C@H]([C@@H](C)O)NC(=O)[C@H](CC(N)=O)NC(=O)[C@@H](NC(C)=O)CCCCNC(=O)C[C@@H](C(=O)N[C@@H](CC(N)=O)C(=O)N[C@@H](CC(N)=O)C(N)=O)NC(=O)C(C)(C)NC(=O)[C@H](Cc3cccc4ccccc34)NC2=O)cc1 [compound 9] (Ac-KNTWQRY(Me)[1Nal][Aib]DNN-NH2; lactam 1-10)

Second part, the compound before the results:

Compound: COc1ccc(C[C@@H]2NC(=O)[C@H](CCCNC(=N)N)NC(=O)[C@H](CCC(N)=O)NC(=O)[C@H](Cc3c[nH]c4ccccc34)NC(=O)[C@H]([C@@H](C)O)NC(=O)[C@H](CC(N)=O)NC(=O)[C@H](NC(C)=O)CCCCNC(=O)C[C@@H](C(=O)N[C@@H](CC(N)=O)C(=O)N[C@@H](CC(N)=O)C(N)=O)NC(=O)[C@H](CCCNC(N)=O)NC(=O)[C@H](Cc3ccc4ccccc4c3)NC2=O)cc1 [compound 29] (Ac-[dK]NTWQRY(Me)[2Nal][Cit]DNN-NH2; lactam 1-10)
- IC50 (human IL-23R): 5.63 nM
- IC50 [1]: 2720 nM

Compound: COc1ccc(C[C@@H]2NC(=O)[C@H](CCCNC(=N)N)NC(=O)[C@H](CCC(N)=O)NC(=O)[C@H](Cc3cn(C)c4ccccc34)NC(=O)[C@H]([C@@H](C)O)NC(=O)[C@H](CC(N)=O)NC(=O)[C@H](NC(C)=O)CCCCNC(=O)C[C@@H](C(=O)N[C@@H](CC(N)=O)C(=O)N[C@@H](CC(N)=O)C(N)=O)NC(=O)[C@](C)(CC(C)C)NC(=O)[C@H](Cc3cccc4ccccc34)NC2=O)cc1 [compound 23] (Ac-[dK]NT[Trp(1-Me)]QRY(Me)[1Nal][αMeL]DNN-NH2; lactam 1-10)
- IC50 (human IL-23R): 12 nM
- IC50 [1]: 1960 nM
